# Experimental data from the supplement of paper PMC10307832.
# Compound: O=C(NC1CCNCC1)c1n[nH]cc1NC(=O)c1c(Cl)cccc1Cl [AT-7519] + CS(=O)(=O)CCNCc1ccc(-c2ccc3ncnc(Nc4ccc(OCc5cccc(F)c5)c(Cl)c4)c3c2)o1 [Lapatinib] (partner 2 µM)
# Test: relative viability (nuclei count vs DMSO), 5 days (fraction); higher = more cells survive
# Details: first compound 0.01 µM
# Procedure, shortened: (§1)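 Relative viability divides the nuclei count in treated wells by that in vehicle wells. Lung cancer cell lines were seeded in 1536-well plates, dosed by pin tool the next day, and fixed and stained after 5 days in one step with final 0.05% Triton X-100, 1% formaldehyde and 1 ug/ml Hoechst. Dosing was a single drug or a fixed anchor-drug dose plus five library-drug doses (not always all listed) in √10 steps, and values are medians of duplicate plates imaged at 4×.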
row,Cell Line,relative viability
1,NCI-H727,0.641
2,NCI-H1650,0.781
3,EBC-1,0.234
4,NCI-H1703,1.03
5,NCI-H1993,0.808
6,SW 1573,1.08
7,NCI-H838,1.05
8,NCI-H520,0.922
9,NCI-H2126,0.804
10,EMC-BAC-2,0.866
11,NCI-H2085,0.845

# Same assay, conditions: first compound 0.03162 µM
row,Cell Line,relative viability
1,NCI-H727,0.82
2,NCI-H1650,0.782
3,EBC-1,0.2
4,NCI-H1703,0.955
5,NCI-H1993,0.787
6,SW 1573,1.18
7,NCI-H838,0.815
8,NCI-H520,0.638
9,NCI-H2126,0.752
10,EMC-BAC-2,0.85
11,NCI-H2085,0.776

# Same assay, conditions: first compound 0.3162 µM
row,Cell Line,relative viability
1,NCI-H727,0.486
2,NCI-H1650,0.555
3,EBC-1,0.213
4,NCI-H1703,0.821
5,NCI-H1993,0.632
6,SW 1573,1.07
7,NCI-H838,0.124
8,NCI-H520,0.587
9,NCI-H2126,0.683
10,EMC-BAC-2,0.889
11,NCI-H2085,0.713

# Same assay, conditions: first compound 1 µM
row,Cell Line,relative viability
1,NCI-H727,0.235
2,NCI-H1650,0.21
3,EBC-1,0.178
4,NCI-H1703,0.206
5,NCI-H1993,0.699
6,SW 1573,0.569
7,NCI-H838,0.0875
8,NCI-H520,0.283
9,NCI-H2126,0.857
10,EMC-BAC-2,0.886
11,NCI-H2085,0.488

# Compound: C1=CC2=C(C=C(C(=C2N=C1)O)N=NC3=CC4=C(C=C3)C=C(C=C4)S(=O)(=O)O)S(=O)(=O)O + CS(=O)(=O)N1CCN(Cc2cc3nc(-c4cccc5[nH]ncc45)nc(N4CCOCC4)c3s2)CC1 [Pictilisib] (partner 1 µM)
# Test: as above
# Details: first compound 0.08 µM
# Procedure, shortened: as §1
row,Cell Line,relative viability
1,NCI-H727,0.591
2,NCI-H1650,0.645
3,EBC-1,0.511
4,NCI-H1703,0.264
5,NCI-H1993,0.887
6,SW 1573,0.449
7,NCI-H838,0.42
8,LCLC-103H,0.662
9,NCI-H520,0.298
10,NCI-H2126,0.505
11,EMC-BAC-2,0.514
12,NCI-H2085,0.38
13,ChaGo-K-1,0.645
14,NCI-H441,0.475

# Same assay, conditions: first compound 0.253 µM
row,Cell Line,relative viability
1,NCI-H727,0.311
2,NCI-H1650,0.587
3,EBC-1,0.333
4,NCI-H1703,0.232
5,NCI-H1993,0.802
6,SW 1573,0.431
7,NCI-H838,0.42
8,LCLC-103H,0.625
9,NCI-H520,0.282
10,NCI-H2126,0.518
11,EMC-BAC-2,0.566
12,NCI-H2085,0.465
13,ChaGo-K-1,0.669
14,NCI-H441,0.49

# Same assay, conditions: first compound 0.8 µM
row,Cell Line,relative viability
1,NCI-H727,0.217
2,NCI-H1650,0.529
3,EBC-1,0.439
4,NCI-H1703,0.265
5,NCI-H1993,0.938
6,SW 1573,0.475
7,NCI-H838,0.437
8,LCLC-103H,0.489
9,NCI-H520,0.332
10,NCI-H2126,0.506
11,EMC-BAC-2,0.522
12,NCI-H2085,0.406
13,ChaGo-K-1,0.673
14,NCI-H441,0.37

# Same assay, conditions: first compound 2.53 µM
row,Cell Line,relative viability
1,NCI-H727,0.358
2,NCI-H1650,0.648
3,EBC-1,0.391
4,NCI-H1703,0.246
5,NCI-H1993,0.921
6,SW 1573,0.447
7,NCI-H838,0.417
8,LCLC-103H,0.615
9,NCI-H520,0.26
10,NCI-H2126,0.522
11,EMC-BAC-2,0.555
12,NCI-H2085,0.571
13,ChaGo-K-1,0.851
14,NCI-H441,0.528

# Same assay, conditions: first compound 8 µM
row,Cell Line,relative viability
1,NCI-H727,0.482
2,NCI-H1650,0.596
3,EBC-1,0.499
4,NCI-H1703,0.197
5,NCI-H1993,0.782
6,SW 1573,0.523
7,NCI-H838,0.518
8,LCLC-103H,0.705
9,NCI-H520,0.269
10,NCI-H2126,0.523
11,EMC-BAC-2,0.349
12,NCI-H2085,0.497
13,ChaGo-K-1,0.711
14,NCI-H441,0.498

# Compound: C1=CC2=C(C=C(C(=C2N=C1)O)N=NC3=CC4=C(C=C3)C=C(C=C4)S(=O)(=O)O)S(=O)(=O)O
# Test: relative viability (nuclei count vs DMSO), 5 days (fraction); higher = more cells survive
# Details: 0.08 µM
# Procedure, shortened: (§2)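 Lung cancer cell lines in 1536-well plates were exposed by pinning to five library-drug doses (not always all listed) √10 apart, following an overnight hold at 37 °C. MetaXpress counted Hoechst-stained nuclei from 4× images taken after 5 days without medium change. Viability is the median ratio of treated-well to vehicle-well nuclei across plates. Plates required control CV below 25% and at least one doubling.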
row,Cell Line,relative viability
1,NCI-H2342,0.991
2,NCI-H1623,0.925
3,NCI-H727,1.15
4,NCI-H1650,0.893
5,EBC-1,1.04
6,NCI-H1703,0.942
7,NCI-H1993,1.08
8,SW 1573,1.11
9,NCI-H838,1
10,LCLC-103H,1.02
11,NCI-H520,1.09
12,NCI-H2126,1.05
13,EMC-BAC-2,0.916
14,NCI-H2085,1.1
15,NCI-H1648,0.747
16,ChaGo-K-1,1.03
17,NCI-H522,0.965
18,SW 900,1.07
19,NCI-H441,1.16

# Same assay, conditions: 0.253 µM
row,Cell Line,relative viability
1,NCI-H2342,0.989
2,NCI-H1623,0.995
3,NCI-H727,0.921
4,NCI-H1650,0.93
5,EBC-1,0.933
6,NCI-H1703,0.772
7,NCI-H1993,0.965
8,SW 1573,1.03
9,NCI-H838,0.966
10,LCLC-103H,0.998
11,NCI-H520,0.926
12,NCI-H2126,0.996
13,EMC-BAC-2,1.02
14,NCI-H2085,0.997
15,NCI-H1648,0.816
16,ChaGo-K-1,0.905
17,NCI-H522,0.984
18,SW 900,0.971
19,NCI-H441,0.942

# Same assay, conditions: 0.8 µM
row,Cell Line,relative viability
1,NCI-H2342,0.841
2,NCI-H1623,0.953
3,NCI-H727,0.923
4,NCI-H1650,0.875
5,EBC-1,0.941
6,NCI-H1703,0.99
7,NCI-H1993,0.875
8,SW 1573,0.944
9,NCI-H838,0.924
10,LCLC-103H,0.976
11,NCI-H520,1.02
12,NCI-H2126,0.908
13,EMC-BAC-2,1.03
14,NCI-H2085,0.946
15,NCI-H1648,0.677
16,ChaGo-K-1,0.937
17,NCI-H522,0.872
18,SW 900,0.802
19,NCI-H441,0.898

# Same assay, conditions: 2.53 µM
row,Cell Line,relative viability
1,NCI-H2342,1.04
2,NCI-H1623,1.06
3,NCI-H727,0.958
4,NCI-H1650,0.993
5,EBC-1,0.99
6,NCI-H1703,0.884
7,NCI-H1993,0.955
8,SW 1573,1.01
9,NCI-H838,0.992
10,LCLC-103H,1.02
11,NCI-H520,0.985
12,NCI-H2126,1.04
13,EMC-BAC-2,1.01
14,NCI-H2085,1.04
15,NCI-H1648,0.682
16,ChaGo-K-1,1.02
17,NCI-H522,1.02
18,SW 900,0.918
19,NCI-H441,1.06

# Same assay, conditions: 8 µM
row,Cell Line,relative viability
1,NCI-H2342,0.876
2,NCI-H1623,0.852
3,NCI-H727,0.941
4,NCI-H1650,0.773
5,EBC-1,1.07
6,NCI-H1703,1.04
7,NCI-H1993,0.944
8,SW 1573,0.815
9,NCI-H838,0.997
10,LCLC-103H,1.03
11,NCI-H520,1.08
12,NCI-H2126,0.964
13,EMC-BAC-2,0.93
14,NCI-H2085,1.03
15,NCI-H1648,1.04
16,ChaGo-K-1,0.901
17,NCI-H522,0.774
18,SW 900,0.841
19,NCI-H441,0.947

# Compound: O=C(NC1CCNCC1)c1n[nH]cc1NC(=O)c1c(Cl)cccc1Cl [AT-7519]
# Test: as above
# Details: 0.01 µM
# Procedure, shortened: as §2
row,Cell Line,relative viability
1,NCI-H2342,0.909
2,NCI-H1623,0.982
3,NCI-H727,0.954
4,NCI-H1650,0.985
5,EBC-1,0.934
6,NCI-H1703,0.865
7,NCI-H1993,0.857
8,SW 1573,0.988
9,NCI-H838,0.925
10,LCLC-103H,1.08
11,NCI-H520,1.06
12,NCI-H2126,1.01
13,EMC-BAC-2,0.954
14,NCI-H2085,1.01
15,NCI-H1648,0.877
16,ChaGo-K-1,1.01
17,NCI-H522,0.814
18,SW 900,0.771
19,NCI-H441,1.03

# Same assay, conditions: 0.03162 µM
row,Cell Line,relative viability
1,NCI-H2342,0.96
2,NCI-H1623,0.934
3,NCI-H727,0.802
4,NCI-H1650,1.03
5,EBC-1,0.885
6,NCI-H1703,0.845
7,NCI-H1993,0.855
8,SW 1573,0.84
9,NCI-H838,0.876
10,LCLC-103H,0.983
11,NCI-H520,0.925
12,NCI-H2126,1
13,EMC-BAC-2,0.934
14,NCI-H2085,1
15,ChaGo-K-1,0.926
16,NCI-H522,0.933
17,SW 900,0.866
18,NCI-H441,1.02

# Same assay, conditions: 0.3162 µM
row,Cell Line,relative viability
1,NCI-H2342,0.906
2,NCI-H1623,1.05
3,NCI-H727,0.849
4,NCI-H1650,0.88
5,EBC-1,0.923
6,NCI-H1703,0.866
7,NCI-H1993,0.776
8,SW 1573,0.753
9,NCI-H838,0.891
10,LCLC-103H,1.01
11,NCI-H520,0.915
12,NCI-H2126,0.94
13,EMC-BAC-2,0.996
14,NCI-H2085,1.01
15,NCI-H1648,0.832
16,ChaGo-K-1,0.996
17,NCI-H522,0.873
18,SW 900,0.786
19,NCI-H441,1.05

# Same assay, conditions: 1 µM
row,Cell Line,relative viability
1,NCI-H2342,0.92
2,NCI-H1623,0.773
3,NCI-H727,0.447
4,NCI-H1650,0.328
5,EBC-1,0.645
6,NCI-H1703,0.261
7,NCI-H1993,0.528
8,SW 1573,0.312
9,NCI-H838,0.615
10,LCLC-103H,1.07
11,NCI-H520,0.695
12,NCI-H2126,0.875
13,EMC-BAC-2,1.11
14,NCI-H2085,1.01
15,NCI-H1648,0.711
16,ChaGo-K-1,0.942
17,NCI-H522,0.897
18,SW 900,0.657
19,NCI-H441,0.523
